# In US7109193B2, “Tricyclic diazepines tocolytic oxytocin receptor antagonists” (Wyeth, priority 2001, dated 2006):
# Target: T1, human vasopressin V1a receptor subtype (Homo sapiens, UniProt P37288)
# T1 construct: host or cells: CHO cells (pZeoSV vector for the Thibonnier line)
# Test: Vasopressin binding in Chinese Hamster Ovary cell membranes expressing human vasopressin V1a subtype receptors
# Conditions: 100 nM, CHO cell membranes, [3H]Manning ligand, values without parentheses
# In short: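 Membranes from CHO cells expressing human V1a receptor were incubated with [3H]Manning ligand (added as 20 μL of 8 nM) in pH 7.4 Tris buffer with MgCl2, BSA and protease inhibitors, 60 min at room temperature. Bound radioactivity was counted after filtration; values are percent inhibition at a stated concentration or IC50.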
# T1 sequence (P37288 whole entry): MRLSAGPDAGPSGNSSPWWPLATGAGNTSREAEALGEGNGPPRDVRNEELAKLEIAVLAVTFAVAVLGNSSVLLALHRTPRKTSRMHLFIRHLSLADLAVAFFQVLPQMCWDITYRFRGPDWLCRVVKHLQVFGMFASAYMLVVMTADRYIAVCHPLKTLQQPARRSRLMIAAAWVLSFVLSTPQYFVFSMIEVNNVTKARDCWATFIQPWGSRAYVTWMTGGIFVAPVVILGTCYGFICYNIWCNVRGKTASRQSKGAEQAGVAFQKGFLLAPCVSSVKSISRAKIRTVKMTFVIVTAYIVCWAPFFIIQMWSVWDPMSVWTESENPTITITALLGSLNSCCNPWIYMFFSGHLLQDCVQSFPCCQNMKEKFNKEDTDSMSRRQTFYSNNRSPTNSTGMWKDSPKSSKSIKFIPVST
row,Structure (SMILES),inhibition at 0.1 µM
1,"CCOc1ccccc1-c1cc(OC)c(C(=O)N2Cc3cccn3Cc3ccccc32)cc1Cl [Example 17, 10-{[6-Chloro-3-methoxy-2′-ethoxy[1,1′-biphenyl]-4-yl]carbonyl}-10,11-dihydro-5H-pyrrolo[2,1-c][1,4]benzodiazepine]",-11%
2,"COc1cc(C(=O)N2Cc3cccn3Cc3ccccc32)ccc1-c1ccccc1C(F)(F)F [Example 19D, (10,11-Dihydro-5H-pyrrolo[2,1-c][1,4]benzodiazepin-10-yl)-(2-methoxy-2′-trifluoromethyl-[1,1′-biphenyl]-4-yl)-methanone]",51%
3,"O=C(c1ccc(-c2ccccc2)nc1)N1Cc2cccn2Cc2ccccc21 [Example 29, (6-Phenyl-pyridin-3-yl)-[10,11-dihydro-5H-pyrrolo[2,1-c][1,4]benzodiazepin-10-yl]methanone]",74%
4,"Cc1cc(C(=O)N2Cc3cccn3Cc3ccccc32)cc(C)c1-n1c(C)ccc1C [Example 30, [4-(2,5-Dimethyl-1H-pyrrol-1-yl)-3,5-dimethyl-phenyl][10,11-dihydro-5H-pyrrolo[2,1-c][1,4]benzodiazepin-10-yl]methanone]",8%
5,"Cc1cc(C(=O)N2Cc3cccn3Cc3ccccc32)ccc1-c1ccncc1 [Example 31, [3-Methyl-4-(4-pyridinyl)phenyl]-[10,11-dihydro-5H-pyrrolo[2,1-c][1,4]benzodiazepin-10-yl]methanone]",30%
6,"COc1ccccc1-c1ccc(C(=O)N2Cc3ccc(C(=O)N4CCN(C)CC4)n3Cc3ccccc32)cc1C [Example 49, {10-[(2′-Methoxy-2-methyl[1,1′-biphenyl]-4-yl)carbonyl]-10,11-dihydro-5H-pyrrolo[2,1-c][1,4]benzodiazepin-3-yl}(4-methyl-1-piperazinyl)methanone]",5%
7,"Cc1ccccc1-c1ccc(C(=O)N2Cc3ccc(C(=O)N4CCN(C)CC4)n3Cc3ccccc32)cc1C [Example 50, {10-[(2,2′-Dimethyl[1,1′-biphenyl]-4-yl)carbonyl]-10,11-dihydro-5H-pyrrolo[2,1-c][1,4]benzodiazepin-3-yl}(4-methyl-1-piperazinyl)methanone]",40%
8,"COc1cccc(-c2ccc(C(=O)N3Cc4ccc(C(=O)N5CCN(C)CC5)n4Cc4ccccc43)cc2C)c1 [Example 51, {10-[(3′-Methoxy-2-methyl[1,1′-biphenyl]-4-yl)carbonyl]-10,11-dihydro-5H-pyrrolo[2,1-c][1,4]benzodiazepin-3-yl}(4-methyl-1-piperazinyl)methanone]",14%
9,"Cc1ccccc1-c1ccc(C(=O)N2Cc3ccc(C(=O)N4CCN(C)CC4)n3Cc3ccccc32)cc1 [Example 52, {10-[(2′-Methyl[1,1′-biphenyl]-4-yl)carbonyl]-10,11-dihydro-5H-pyrrolo[2,1-c][1,4]benzodiazepin-3-yl}(4-methyl-1-piperazinyl)methanone]",54%
10,"COc1cc(C(=O)N2Cc3ccc(C(=O)N4CCN(C)CC4)n3Cc3ccccc32)ccc1-c1ccccc1C [Example 53, {10-[(2-Methoxy-2′-methyl[1,1′-biphenyl]-4-yl)carbonyl]-10,11-dihydro-5H-pyrrolo[2,1-c][1,4]benzodiazepin-3-yl}(4-methyl-1-piperazinyl)methanone]",38%
11,"COc1cccc(-c2cc(OC)c(C(=O)N3Cc4ccc(C(=O)N5CCN(C)CC5)n4Cc4ccccc43)cc2Cl)c1 [Example 54, {10-[(6-Chloro-3,3′-dimethoxy[1,1′-biphenyl]-4-yl)carbonyl]-10,11-dihydro-5H-pyrrolo[2,1-c][1,4]benzodiazepin-3-yl}(4-methyl-1-piperazinyl)methanone]",-4%
12,"COc1cc(C(=O)N2Cc3ccc(C(=O)N4CCN(C)CC4)n3Cc3ccccc32)ccc1-c1cccc2ccccc12 [Example 55, {10-[3-Methoxy-4-(1-naphthyl)benzoyl]-10,11-dihydro-5H-pyrrolo[2,1-c][1,4]benzodiazepin-3-yl}(4-methyl-1-piperazinyl)methanone]",4%
13,"COc1ccccc1-c1ccc(C(=O)N2Cc3ccc(C(=O)N4CCN(C)CC4)n3Cc3ccccc32)cc1OC [Example 56, {10-[(2,2′-Dimethoxy[1,1′-biphenyl]-4-yl)carbonyl]-10,11-dihydro-5H-pyrrolo[2,1-c][1,4]benzodiazepin-3-yl}(4-methyl-1-piperazinyl)methanone]",2%
14,"COc1cccc(-c2ccc(C(=O)N3Cc4ccc(C(=O)N5CCN(C)CC5)n4Cc4ccccc43)cc2OC)c1 [Example 57, {10-[(2,3′-Dimethoxy[1,1′-biphenyl]-4-yl)carbonyl]-10,11-dihydro-5H-pyrrolo[2,1-c][1,4]benzodiazepin-3-yl}(4-methyl-1-piperazinyl)methanone]",15%
15,"CN1CCN(C(=O)c2ccc3n2Cc2ccccc2N(C(=O)c2ccc(-c4cccc5ccccc45)cc2Cl)C3)CC1 [Example 58, {10-[2-Chloro-4-(1-naphthyl)benzoyl]-10,11-dihydro-5H-pyrrolo[2,1-c][1,4]benzodiazepin-3-yl}(4-methyl-1-piperazinyl)methanone]",5%
16,"COc1ccccc1-c1ccc(C(=O)N2Cc3ccc(C(=O)N4CCCN(C)CC4)n3Cc3ccccc32)cc1C [Example 62, {10-[(2′-Methoxy-2-methyl[1,1′-biphenyl]-4-yl)carbonyl]-10,11-dihydro-5H-pyrrolo[2,1-c][1,4]benzodiazepin-3-yl}(4-methyl-1,4-diazepan-1-yl)methanone]",10%
17,"Cc1ccccc1-c1ccc(C(=O)N2Cc3ccc(C(=O)N4CCCN(C)CC4)n3Cc3ccccc32)cc1C [Example 63, {10-[(2,2′-Dimethyl[1,1′-biphenyl]-4-yl)carbonyl]-10,11-dihydro-5H-pyrrolo[2,1-c][1,4]benzodiazepin-3-yl}(4-methyl-1,4-diazepan-1-yl)methanone]",57%
18,"COc1cccc(-c2ccc(C(=O)N3Cc4ccc(C(=O)N5CCCN(C)CC5)n4Cc4ccccc43)cc2C)c1 [Example 64, {10-[(3′-Methoxy-2-methyl[1,1′-biphenyl]-4-yl)carbonyl]-10,11-dihydro-5H-pyrrolo[2,1-c][1,4]benzodiazepin-3-yl}(4-methyl-1,4-diazepan-1-yl)methanone]",13%
19,"Cc1ccccc1-c1ccc(C(=O)N2Cc3ccc(C(=O)N4CCCN(C)CC4)n3Cc3ccccc32)cc1 [Example 65, {10-[(2′-Methyl[1,1′-biphenyl]-4-yl)carbonyl]-10,11-dihydro-5H-pyrrolo[2,1-c][1,4]benzodiazepin-3-yl}(4-methyl-1,4-diazepan-1-yl)methanone]",40%
20,"COc1cc(C(=O)N2Cc3ccc(C(=O)N4CCCN(C)CC4)n3Cc3ccccc32)ccc1-c1ccccc1C [Example 66, {10-[(2-Methoxy-2′-methyl[1,1′-biphenyl]-4-yl)carbonyl]-10,11-dihydro-5H-pyrrolo[2,1-c][1,4]benzodiazepin-3-yl}(4-methyl-1,4-diazepan-1-yl)methanone]",52%
21,"COc1cccc(-c2cc(OC)c(C(=O)N3Cc4ccc(C(=O)N5CCCN(C)CC5)n4Cc4ccccc43)cc2Cl)c1 [Example 67, {10-[(6-Chloro-3,3′-dimethoxy[1,1′-biphenyl]-4-yl)carbonyl]-10,11-dihydro-5H-pyrrolo[2,1-c][1,4]benzodiazepin-3-yl}(4-methyl-1,4-diazepan-1-yl)methanone]",-4%
